{"source": "BindingDB's records for aid1799747", "about": "(Csar, 2012)", "data": [{"target": "T1, UDP-3-O-acyl-N-acetylglucosamine deacetylase (Aquifex aeolicus (strain VF5), UniProt O67648)", "T1 sequence (O67648 whole entry)": "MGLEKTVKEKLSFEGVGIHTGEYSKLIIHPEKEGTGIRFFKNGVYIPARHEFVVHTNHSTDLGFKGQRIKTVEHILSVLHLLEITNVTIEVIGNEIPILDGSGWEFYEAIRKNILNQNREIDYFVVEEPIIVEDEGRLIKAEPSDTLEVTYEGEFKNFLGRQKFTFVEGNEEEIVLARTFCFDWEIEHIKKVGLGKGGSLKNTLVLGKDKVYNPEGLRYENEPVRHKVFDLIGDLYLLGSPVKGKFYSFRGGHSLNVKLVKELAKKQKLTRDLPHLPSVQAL", "test": "OctetRed", "conditions": "pH 7; 25 °C", "units": {"Kd": "nM", "Ki": "nM"}, "values": [{"molecule": "NC[C@H](NC(=O)c1ccc(-c2ccccc2)cc1)C(=O)NO", "note": "[CS249]", "Kd": 145}, {"molecule": "NC[C@H](NC(=O)c1ccc(-c2ccc(Br)cc2)cc1)C(=O)NO", "note": "[CS250]", "Kd": 29}, {"molecule": "NC[C@H](NC(=O)c1ccc(C#CC#Cc2ccccc2)cc1)C(=O)NO", "note": "[CS252]", "Ki": 10}, {"molecule": "C[C@@H](O)[C@H](NC(=O)c1ccc(C#CC#Cc2ccccc2)cc1)C(=O)NO", "note": "[CS257]", "Ki": 1}, {"molecule": "C[C@@H](O)[C@H](NC(=O)c1ccc(-c2ccc(Br)cc2)cc1)C(=O)NO", "note": "[CS258]", "Ki": 1}, {"molecule": "C[C@@H](O)[C@H](NC(=O)c1ccc(C#Cc2ccccc2)cc1)C(=O)NO", "note": "[CS259]", "Ki": 1}, {"molecule": "C[C@@H](O)[C@H](NC(=O)c1ccc(-c2ccccc2)cc1)C(=O)NO", "note": "[CS263]", "Kd": 14}, {"molecule": "O=C(NO)[C@H]1COC(c2ccc(OC(F)(F)F)c(Cl)c2)=N1", "note": "[CS270]", "Kd": 744}, {"molecule": "O=C(NO)[C@H]1COC(c2ccc(F)c(C(F)(F)F)c2)=N1", "note": "[CS271]", "Kd": 443}, {"molecule": "O=C(NO)[C@H]1COC(c2cc3cc(F)ccc3[nH]2)=N1", "note": "[CS272]", "Kd": 772}, {"molecule": "CCCc1ccc(-c2ccc(C3=N[C@@H](C(=O)NO)CO3)cc2)cc1", "note": "[CS274]", "Kd": 415}, {"molecule": "O=C(NO)c1csc(-c2ccc(OC(F)(F)F)c(Cl)c2)n1", "note": "[CS275]", "Kd": 1820}]}]}
